Source: patent US20260014144A1, “USE OF OV[…] PHARMACEUTICAL COMPOSITION THEREOF IN PREVENTION AND TREATMENT OF RENAL FIBROSIS” (ZHUJIANG HOSPITAL OF SOUTHERN MEDICAL UNIVERSITY, priority 2022, published 2026)
Where a name gives a salt, the structure may show the parent alone.

Assays:
[1] = test system: unilateral ureteral obstruction (UUO) RF animal model; assay: Therapeutic effect of ACT004 in unilateral ureteral obstruction (UUO) renal fibrosis mouse model; type: in vivo; settings: UUO mice
Experimental: (§1) Sixty 8-week-old C57 mice (SPF grade) were supplied by the Laboratory Animal Center of Zhujiang Hospital, Southern Medical University, Guangzhou. Before the experiment, the animals were acclimated to the indoor environment for 7 days at a room temperature of 18-22° C. and a relative humidity of 65%. All mice had free access to water and were fed with regular feed (protein content: 3.14 mg/g).
Method for constructing UUO model: Under anesthesia with intraperitoneal injection of tribromoethanol, the surgical area for abdominal midline incision was shaved and disinfected. After making the abdominal midline incision, the left ureter was located, and the upper segment of the ureter was isolated. A complete ureteral obstruction was induced by double ligation using 4-0 silk sutures (UUO group). For mice in the sham group, the ureter was similarly exposed and isolated, but no ligation was performed. Layered suturing of the abdominal incision was performed, followed by disinfection with iodophor. Mice subjected to UUO surgery were randomly divided into the following 5 groups: a UUO group, a UUO+low-dose ACT004 (12.5 mg/kg·d) group, a UUO+medium-dose ACT004 (25 mg/kg·d) group, a UUO+high-dose ACT004 (50 mg/kg·d) group, and a sham group, with 6 mice in each group. Starting from day 4 after the surgery, intragastric administration was performed. The sham group and the UUO groups were given an equal volume of normal saline as a control treatment. On day 11 after the surgery, the left kidney tissues were collected.
(§2) According to the results of the preliminary experiment, the medium dose of ACT004 for mice was 25 mg/kg·d. Therefore, low-dose (12.5 mg/kg·d), medium-dose (25 mg/kg·d) and high-dose (50 mg/kg·d) groups were set. ACT004 was prepared into a solution using normal saline, and intragastrically administered once daily starting on day 4 after the surgery for a duration of 1 week. Mice in the sham, UUO and IRI groups were subjected to intragastric administration with an equal amount of normal saline for a duration of 1 week.
(§3) After 1 week of intragastric administration, kidney tissues were collected as follows: Anesthesia was conducted using single intraperitoneal injection of tribromoethanol at a concentration of 200 mg/kg. Blood was collected by enucleation, and serum was separated and stored at −20° C. or −70° C. An abdominal incision was made, and sterile gauze was used to move aside abdominal organs. Cold PBS was perfused through the heart until the organs turned white. Kidney tissues were then collected. The entire left kidney was weighed, then bisected along the median sagittal plane, and washed thoroughly with PBS, and the capsule was removed. The tissue was then fixed in 10% neutral formaldehyde buffer for subsequent pathological examination.
(§4) 2.2.1.4.1 Renal pathology: Masson staining was used to observe the renal pathological structures and collagen fiber deposition.
(§5) 2.2.1.4.2 Protein level detection: Ras GTPase superfamily member RALB, EMT-related index a-SMA, and fibrosis phenotype-related indexes Fibronectin and Collagen I.

[2] = test system: ischemia-reperfusion injury (IRI) RF animal model; assay: Therapeutic effect of ACT004 in ischemia-reperfusion injury (IRI) renal fibrosis mouse model; type: in vivo; settings: IRI mice
Experimental: as §1
Method for constructing IRI model: Mice were anesthetized intraperitoneally with tribromoethanol. An abdominal midline incision or dorsal incision was made. The left renal vein was isolated, while the renal artery was clamped using an arterial clip. The mice were placed on a constant-temperature pad at 37.5° C. for 30 min, and the incision was covered with PBS-moistened gauze. After 30 min, the arterial clip was released, and the abdomen was closed after the recovery of renal congestion was observed. Mice subjected to IRI surgery were randomly divided into the following 5 groups: an IRI group, an IRI+low-dose ACT004 (12.5 mg/kg·d) group, an IRI+medium-dose ACT004 (25 mg/kg·d) group, an IRI+high-dose ACT004 (50 mg/kg·d) group, and a sham group, with 6 mice in each group. Starting from day 4 after the surgery, intragastric administration was performed. The sham group and the IRI groups were given an equal volume of normal saline as a control treatment. On day 10 after the surgery, the right kidney was removed, and on day 11 day after the surgery, the left kidney tissues were collected.
as §2, §3, §4, §5

[3] = test system: renal tubular epithelial cells (NRK); assay: Effect of ACT004 on TGF-β1-induced EMT in renal tubular epithelial cells; type: cell-based, mouse
Experimental: The immortalized mouse-derived renal tubular epithelial cell line was provided by the Professor Nie Xiaoli's research team at the School of Traditional Chinese Medicine, Southern Medical University.
The addition of TGF-β1 was accompanied by the administration of different concentrations of ACT004 intervention (2.5 μM, 5 μM, and 10 μM). The cells were divided into the following 6 groups: a blank control group, a blank control+ACT004 (5 μM) group, a TGF-β1 model group, and groups for TGF-β1+ different concentrations of ACT004 intervention (2.5 μM, 5 μM, and 10 µM).
Protein level detection: Ras GTPase superfamily member RALB, EMT-related index α-SMA, and fibrosis phenotype-related indexes Fibronectin and Collagen I.

[4] = ACT004 12.5, 25, 50 mg/kg·d intragastric once daily from day 4 for 1 week, left kidney day 11, FIG. 1A
[5] = ACT004 intragastric 1 week, FIG. 1B
[6] = ACT004 intragastric 1 week, FIG. 1C, statistically significant (p<0.05)
[7] = ACT004 treatment groups, FIG. 3A

In the case of `C/C1=C\[C@H]2OC(=O)[C@H](CN3CCN(C)CC3)[C@@H]2CC[C@]2(C)O[C@H]2CCC2=C[C@H](C1)OC2=O` [ACT004, (1aS,4Z,7S,9E,10aS,13S,13aS,15aS)-9,15a-dimethyl-13-((4-methylpiperazin-1-yl)methyl)-1a,2,3,8,10a,13,13a,14,15,15a-decahydro-5H-4,7-(metheno) furo [2,3-f]oxireno [2,3-j][1]oxacyclopentadecine-5, 12 (7H)-dione fumarate], the “Masson staining: renal interstitial expansion, extracellular matrix deposition, increased collagen fibers, inflammatory cell infiltration” value [1, 4] was “significantly reduced”, the “Immunohistochemical staining: expression of Fibronectin, Collagen I, and α-SMA in kidney tissue” value [1, 5] was “inhibitory effect” and the “Western blot: protein expression levels of Fibronectin, Collagen I, and α-SMA in kidney tissue” value [1, 6] was “inhibit the progression of RF”. The “Western blot: expression levels of p-Smad2, p-Smad3, p-Stat3, and p-NFκB in kidney tissues” value ([1]; ACT004 treatment groups, FIG. 2A) was “significantly reduced”, the “Western blot: expression level of RALB in kidney tissues” value [1, 7] was “significantly reduced” and the “Masson staining: renal interstitial expansion, extracellular matrix deposition, increased collagen fibers, inflammatory cell infiltration” value [2, 4] was “significantly reduced”. For the same compound, the “Immunohistochemical staining: expression of Fibronectin, Collagen I, and α-SMA in kidney tissue” value [2, 5] was “inhibitory effect”, the “Western blot: protein expression levels of Fibronectin, Collagen I, and α-SMA in kidney tissue” value [2, 6] was “inhibit the progression of RF” and the “Western blot: expression levels of p-Smad2, p-Smad3, p-Stat3, and p-NFκB in kidney tissues” value ([2]; ACT004 treatment groups, FIG. 2B) was “significantly reduced”. The “Western blot: expression level of RALB in kidney tissues” value [2, 7] was “significantly reduced”, the “Western blot: protein expression levels of Fibronectin, Collagen I, and α-SMA in TGFβ1-induced renal tubular epithelial cells” value ([3]; TGF-β1 10 ng/uL, 48 h, ACT004 2.5, 5, 10 μM, FIG. 1D, statistically significant (p<0.05)) was “inhibit the progression of RF” and the “Western blot: expression levels of p-Smad2, p-Smad3, p-Stat3, and p-NFκB in renal tubular epithelial cells induced by TGF-β1” value ([3]; different concentrations of ACT004, TGF-β1 induction for 1 h, FIG. 2C, statistically significant) was “reduced”.
